Source: patent US3951955A, “Penicillins substituted with heterocyclic groups” (Sumitomo Chemical Company, Limited, priority 1970, dated 1976)
Converted amounts (≈) assume the structure as drawn. Where a name gives a salt, the structure may show the parent alone.

Assays:
Assay in all cases: minimal inhibitory concentration, agar dilution method (in vitro)
Type in all cases: cell-based
[1] = tested on: Escherichia coli NIHJ
Description: (§1) When determined according to the agar dilution method, the penicillins [I] afford the minimal inhibitory concentrations as shown in the following Table 1: […]

[2] = tested on: Proteus miravilis 2425
Description: as §1

[3] = tested on: Pseudomonas aeruginosa 104
Description: as §1

[4] = tested on: Staphylococcus aureus 209P
Description: as §1

[5] = tested on: Klebsiella pneumoniae 602
Description: as §1

SMILES | MIC [1] | MIC [2] | MIC [3] | MIC [4] | MIC [5]
CCOC(=O)Oc1c(C(=O)N[C@@H](C(=O)N[C@@H]2C(=O)N3[C@@H]2SC(C)(C)[C@@H]3C(=O)O)c2ccccc2)cnc2ccccc12 [Example 1, D-(-)-α-(4-ethoxycarbonyloxyquinoline-3-carbonamido)-benzylpenicillin] | 6.25 µg/mL (≈ 10.5 µM) | 1.56 µg/mL (≈ 2.63 µM) | 3.13 µg/mL (≈ 5.28 µM) | 0.2 µg/mL (≈ 0.337 µM) | –
CC1(C)S[C@@H]2[C@H](NC(=O)[C@H](NC(=O)c3cnc4ccccc4c3O)c3ccccc3)C(=O)N2[C@H]1C(=O)O [Example 3, D-(-)-α-(4-hydroxyquinoline-3-carbonamido)-benzylpenicillin] | 6.25 µg/mL (≈ 12 µM) | 3.13 µg/mL (≈ 6.01 µM) | 6.25 µg/mL (≈ 12 µM) | 0.2 µg/mL (≈ 0.384 µM) | 1.56 µg/mL (≈ 3 µM)
Cc1ccc2c(O)c(C(=O)N[C@@H](C(=O)N[C@@H]3C(=O)N4[C@@H]3SC(C)(C)[C@@H]4C(=O)O)c3ccccc3)cnc2n1 [Example 4, D-(-)-α-(7-methyl-4-hydroxy-1,8-naphthyridine-3-carbonamido)-benzylpenicillin potassium salt] | 12.5 µg/mL | 6.25 µg/mL | 6.25 µg/mL | 0.78 µg/mL | –
CCOC(=O)Oc1c(C(=O)N[C@@H](C(=O)N[C@@H]2C(=O)N3[C@@H]2SC(C)(C)[C@@H]3C(=O)O)c2ccccc2)cnc2nc(C)ccc12 [Example 5, D-(-)-α-(7-methyl-4-ethoxycarbonyloxy-1,8-naphthyridine-3-carbonamido)-benzylpenicillin] | 12.5 µg/mL (≈ 20.6 µM) | 6.25 µg/mL (≈ 10.3 µM) | 12.5 µg/mL (≈ 20.6 µM) | 0.78 µg/mL (≈ 1.28 µM) | –
CC(C)(C)C(=O)Oc1c(C(=O)N[C@@H](C(=O)N[C@@H]2C(=O)N3[C@@H]2SC(C)(C)[C@@H]3C(=O)O)c2ccccc2)cnc2ccccc12 [Example 6, D-(-)-α-(4-pivaloyloxyquinoline-3-carbonamido)-benzylpenicillin] | 6.25 µg/mL (≈ 10.3 µM) | 1.56 µg/mL (≈ 2.58 µM) | 3.13 µg/mL (≈ 5.18 µM) | 0.1 µg/mL (≈ 0.165 µM) | –
Cc1nc2cc3c(cc2c(O)c1C(=O)N[C@@H](C(=O)N[C@@H]1C(=O)N2[C@@H]1SC(C)(C)[C@@H]2C(=O)O)c1ccccc1)OCO3 [Example 7, D-(-)-α-(2-methyl-6,7-methylenedioxy-4-hydroxyquinoline-3-carbonamido)-benzylpenicillin potassium salt] | 12.5 µg/mL | 6.25 µg/mL | 12.5 µg/mL | 0.2 µg/mL | –
CCSc1c(C(=O)NC(C(=O)N[C@@H]2C(=O)N3[C@@H]2SC(C)(C)[C@@H]3C(=O)O)c2ccccc2)cnc2cc3c(cc12)OCO3 (some centres unmarked) [Example 8] | 12.5 µg/mL (≈ 20.5 µM) | 12.5 µg/mL (≈ 20.5 µM) | 25 µg/mL (≈ 41.1 µM) | 0.2 µg/mL (≈ 0.329 µM) | –
CC1(C)S[C@@H]2[C@H](NC(=O)C(NC(=O)c3cnc4cc5c(cc4c3S)OCO5)c3ccccc3)C(=O)N2[C@H]1C(=O)O (some centres unmarked) [Example 9] | 6.25 µg/mL (≈ 10.8 µM) | 3.13 µg/mL (≈ 5.39 µM) | 3.13 µg/mL (≈ 5.39 µM) | 0.2 µg/mL (≈ 0.344 µM) | –
COc1c(C(=O)NC(C(=O)N[C@@H]2C(=O)N3[C@@H]2SC(C)(C)[C@@H]3C(=O)O)c2ccccc2)cnc2cc3c(cc12)OCO3 (some centres unmarked) [Example 10] | 12.5 µg/mL (≈ 21.6 µM) | 25 µg/mL (≈ 43.2 µM) | 25 µg/mL (≈ 43.2 µM) | 0.2 µg/mL (≈ 0.346 µM) | –
CSc1ccc2ncc(C(=O)NC(C(=O)N[C@@H]3C(=O)N4[C@@H]3SC(C)(C)[C@@H]4C(=O)O)c3ccccc3)c(O)c2n1 (some centres unmarked) [Example 11] | 6.25 µg/mL (≈ 11 µM) | 3.13 µg/mL (≈ 5.51 µM) | 3.13 µg/mL (≈ 5.51 µM) | 0.1 µg/mL (≈ 0.176 µM) | –
CN(C)c1ccc2ncc(C(=O)NC(C(=O)N[C@@H]3C(=O)N4[C@@H]3SC(C)(C)[C@@H]4C(=O)O)c3ccccc3)c(O)c2n1 (some centres unmarked) [Example 12] | 6.25 µg/mL (≈ 11.1 µM) | 3.13 µg/mL (≈ 5.54 µM) | 3.13 µg/mL (≈ 5.54 µM) | 0.1 µg/mL (≈ 0.177 µM) | –
CCOc1c(C(=O)NC(C(=O)N[C@@H]2C(=O)N3[C@@H]2SC(C)(C)[C@@H]3C(=O)O)c2ccccc2)cnc2ccccc12 (some centres unmarked) [Example 13] | 12.5 µg/mL (≈ 22.8 µM) | 25 µg/mL (≈ 45.6 µM) | 50 µg/mL (≈ 91.1 µM) | 0.2 µg/mL (≈ 0.365 µM) | –
CC1(C)S[C@@H]2[C@H](NC(=O)C(NC(=O)c3cnc4cc(C(F)(F)F)ccc4c3O)c3cccs3)C(=O)N2[C@H]1C(=O)O (some centres unmarked) [Example 25] | 12.5 µg/mL (≈ 21 µM) | 3.16 µg/mL (≈ 5.31 µM) | 6.25 µg/mL (≈ 10.5 µM) | 0.39 µg/mL (≈ 0.656 µM) | –
